Source: publication doi:10.1101/2025.03.14.643404, “A Bivalent Molecular Glue Linking Lysine Acetyltransferases to Oncogene-induced Cell Death” (bioRxiv, 2025)

What was measured:
SUDHL5 cells = experiment: Cell cycle analysis (EdU / 7-AAD) of SUDHL5; format: cell-based, human; conditions: SUDHL5, 10 nM, 24 hours
Experimental: 2 million SUDHL5 cells were plated in 4 mL of media in 6-well plates and treated with 10 nM of drug. After 22 hours, cells were dosed with 10 μM 5-ethynyl-2’-deoxyuridine (EdU) and allowed to incubate for an additional 2 hours, at which point cells were harvested and collected by centrifuging at 300g for 4 minutes at 4°C. Cells were washed once with 1% BSA in PBS. 1.1 million cells in 1% BSA/PBS were then transferred to flow cytometry polypropylene tubes and centrifuged at 300g for 4 minutes at 4°C. Supernatant was removed, and cells were fixed for 15 minutes in the dark at room temperature with 100 μL of 4% PFA in PBS, in which gentle flicking was used to resuspend cells. Cells were then washed with 1 mL of 1% BSA/PBS and permeabilized with 100 μL of 0.1% Triton-X for 30 minutes at room temperature in the dark. Cells were washed with 3 mL 1% BSA/PBS, then incubated in the dark for 30 minutes with a cocktail of AlexaFluor-488-Azide (438 μL PBS, 10 μL 100 mM CuSO4, 2 μL 488-azide, and 50 μL of 1x EdU Reaction Buffer dissolved in water) (Invitrogen C10337). Cells were washed with 1 mL 1% BSA in PBS, then incubated with a reaction cocktail of 7-AAD/RNAseA for 30 minutes in the dark (500 μL 1% BSA/PBS, 2 μL 7-AAD (BD 559925), 5 μL RNAseA (Invitrogen 12091021)). […] Cells were gently agitated by shaking, then analyzed through flow cytometry on a BD Accuri. […]

c-MYC mRNA = experiment: RT-qPCR of c-MYC transcripts in SUDHL5; format: cell-based, human; conditions: SUDHL5, 1 nM
Experimental: Cells were plated at 1M/mL and harvested in TRIsure (Bioline 38033). RNA was extracted using Direct-zol RNA MicroPrep columns (Zymo R2062) treated with DNAseI. cDNA was prepared (Meridian Bioscience BIO-65054) and used for qPCR (Meridian Bioscience BIO-94050) using an AppliedBiosystems QuantStudio 6Pro. Primer sequences were the following:
• c-MYC fwd: […]; • c-MYC rev: […]; • GAPDH fwd: […]; • GAPDH rev: […].

p300^WT = p300^WT (Homo sapiens, UniProt Q09472); experiment: TR-FRET binary displacement assay, p300 WT bromodomain; format: binding; conditions: α = Kd binary/Kd ternary
Experimental: Drugs were digitally dispensed (Tecan D300e) into protein-containing wells, and the plate was allowed to incubate in the dark for 1 hour at room temperature. Emission at 490 nm (terbium) and 520 nm (FITC) was measured on a PHERAstar FS plate reader (BMG Labtech) upon excitation with 337 nm. The ratio of signal at 520 nm to 490 nm was calculated and normalized to DMSO-treated protein.

c-MYC protein = experiment: Western blot of c-MYC protein in SUDHL5; format: cell-based, human
Experimental: Cells were plated at 1M/mL and treated with drug at indicated timepoints and doses. Cells were harvested on ice in RIPA buffer (50mM Tris-HCl pH 8, 150mM NaCl, 1% NP-40, 0.1% DOC, 1% SDS, protease inhibitor cocktail (~20 mg/ml pepstatin, aprotinin, and leupeptin), 1mM DTT) and 1:200 benzonase (Sigma E1014) was added and incubated for 20 mins. After 10 min centrifugation at 14,000g and 4 °C, the supernatant was collected and protein concentration was measured by Bradford. SDS-PAGE analysis was carried out in either 4–12% or 12% Bis-Tris PAGE gels (Thermo NW04120 and NW04127). Antibodies used for immunoblots were: BCL6 (1:1000 v:v, Cell Signaling D65C10), p300 (1:250, Santa Cruz F-4 sc-48343), CBP (1:1000, Cell Signaling D6C5), c-MYC (1:1000, Cell Signaling D84C12), Caspase-3 (1:1000, Cell Signaling 9662), GAPDH (1:2000, Santa Cruz 6C5 sc-32233), BBC3/PUMA (1:1000, Cell Signaling E2P7G), FOXO3 (1:1000, Cell Signaling 75D8), H3K27ac (1:1000, abcam ab4729), H2BK20ac (1:1000, Cell Signaling D709W), H3 (1:10,000, Cell Signaling 1B1B2), H2B (1:10,000, Cell Signaling D2H6), p27/CDKN1B (1:1000, Cell Signaling D69C12), and TP53 (1:1000, Santa Cruz DO-1). ImageStudio (Licor) was used for blot imaging and quantification.

Chain of p300^WT (Q09472 1049-1156 limits assumed): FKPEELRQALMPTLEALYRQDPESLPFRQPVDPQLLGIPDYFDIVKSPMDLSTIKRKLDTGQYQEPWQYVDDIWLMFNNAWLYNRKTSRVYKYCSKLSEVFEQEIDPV

cooperativity α (p300^WT): 4.2
IC50 (c-MYC protein; SUDHL5, 4 hours, read-out: IC50 of c-MYC protein repression): ~0.8 nM
SMILES: CNC(=O)COc1cc2cc(Nc3nc(N4CCC(C(=O)N5CCN(CCC(=O)N6CCC(n7nc(N8CCCc9cc(-c%10cnn(C)c%10)c(C(F)F)cc98)c8c7CCN(C(=O)NC)C8)CC6)CC5)CC4)ncc3Cl)cc(OC)c2n(C)c1=O [TCIP3]
cell cycle effect (SUDHL5 cells): enrichment in cells arrested in G0/G1
t1/2 of c-MYC mRNA decrease (c-MYC mRNA): 33 min
t1/2 of c-MYC protein decrease (c-MYC protein; SUDHL5, 1 nM): 2.5 h
